The source of these data is patent US12565468B2, “Processes and intermediates for the preparations of Carboprost and Carboprost Tromethamine, and Carboprost Tromethamine prepared therefrom” (CHIROGATE INTERNATIONAL INC., priority 2021, dated 2026).

Type in all cases: physicochemical
The nature of data set [1]: Stability of Carboprost Tromethamine crystal on storage at 25° C./60% RH and 5° C. (HPLC purity and impurities). An excerpt: (§1) The high melting point Carboprost Tromethamine Crystal is very stable at room temperature, even at higher temperature, so that the formation of degradation impurities can be effectively avoided.
Data set [2] can be described thus: Stability of Carboprost Tromethamine crystal at 80° C. (HPLC purity and impurities).
Text: as §1

Data set [3] can be described thus: Hygroscopicity: water content by Karl Fischer titration after exposure to 99% RH at 25° C. On the procedure:
On the other hand, the hygroscopicity of the high melting point Carboprost Tromethamine crystal prepared from Example 10 (Method A) and the low melting point Carboprost Tromethamine crystal prepared from Example 10 (Method B) was measured. The samples were placed in glass vial with 99% RH at 25° C. for 3 hours, and the water content of the samples were measured by Karl Fischer titration, as shown in Table 6.

Take `CCCCC[C@](C)(O)/C=C/[C@@H]1[C@@H](C/C=C\CCCC(=O)O)[C@@H](O)C[C@H]1O` [Example 10 (Method A), 2-amino-2-(hydroxymethyl)propane-1,3-diol; (Z)-7-((1R,2R,3R,5S)-3,5-dihydroxy-2-((S,E)-3-hydroxy-3-methyloct-1-en-1-yl)cyclopentyl)hept-5-enoate]: the 15-epi amounted to 0.28% in data set [1] (5° C., 1 month); 0.25% in data set [1] (5° C., 12 months); 0.25% in data set [1] (5° C., 18 months); 0.20% in data set [2] (80° C., 1 days); 0.21% in data set [2] (80° C., 3 days); 0.21% in data set [2] (Control). For the same compound, the Purity turned out to be 99.72% in data set [1] (5° C., 1 month); 99.75% in data set [1] (5° C., 12 months); 99.75% in data set [1] (5° C., 18 months); 99.71% in data set [1] (25° C./60% RH, 1 month); 99.75% in data set [1] (25° C./60% RH, 6 months); 99.75% in data set [1] (Control). Moreover, the Purity in data set [2] (80° C., 1 days) was 99.79%; in data set [2] (80° C., 3 days) it was 99.78%; in data set [2] (Control), 99.79%. Besides, the “Total Impurities” value in data set [1] (5° C., 1 month) is reported as 0.28%; in data set [1] (5° C., 12 months), 0.25%; in data set [1] (5° C., 18 months), 0.25%; in data set [1] (25° C./60% RH, 1 month) it was 0.29%; in data set [1] (25° C./60% RH, 6 months) it was 0.25%; in data set [1] (Control), 0.25%. Further, the “Total Impurities” value is 0.21% in data set [2] (80° C., 1 days); 0.22% in data set [2] (80° C., 3 days); 0.21% in data set [2] (Control). Also, the “15(R)-epimer” value was found to be 0.27% in data set [1] (25° C./60% RH, 1 month); 0.25% in data set [1] (25° C./60% RH, 6 months); 0.25% in data set [1] (Control). The “Stability (in words)” value is given as “very stable” in data set [1] (at room temperature, even at higher temperature); “very stable” in data set [1] (treated at 20° C. for 6 months, 5° C. for 18 months, and 80° C. for 3 days); “stable” in data set [1] (treated at 20° C. for 6 months, PC for 18 months, and 80° C. for 3 days). Further, the “Water Content (%)” value in data set [3] (25° C./99% RH/1 h) is recorded as 1.509%; in data set [3] (25° C./99% RH/2 h), 3.354%; in data set [3] (25° C./99% RH/3 h), 5.881%; in data set [3] (Original), 0.3657%. The “Rate of water absorption (in words)” value in data set [3] (99% RH at 25° C. for 3 hours, compared to the low melting point crystal) was “relatively low rate of water absorption”.
Turning to `CCCCC[C@](C)(O)/C=C/[C@@H]1[C@@H](C/C=C\CCCC(=O)O)[C@@H](O)C[C@H]1O` [Example 10 (Method B), 2-amino-2-(hydroxymethyl)propane-1,3-diol; (Z)-7-((1R,2R,3R,5S)-3,5-dihydroxy-2-((S,E)-3-hydroxy-3-methyloct-1-en-1-yl)cyclopentyl)hept-5-enoate, reference compound], the “Water Content (%)” value in data set [3] (25° C./99% RH/1 h) is on record as 2.236%; in data set [3] (25° C./99% RH/2 h), 5.45%; in data set [3] (25° C./99% RH/3 h) it was 7.513%; in data set [3] (Original), 0.3303%.
